Data reported in patent US6525001B1, “Substituted pyrimidine and pyridine herbicides” (Mid-American Commercialization Corporation, priority 1997, dated 2003).

Structure (SMILES) | melting point [°C]
Cc1cnc(-n2ccc(C(F)(F)F)n2)nc1C(=O)c1cccc(C(F)(F)F)c1 [Example 4, [5-methyl-2-[3-(trifluoromethyl)-1H-pyrazol-1-yl]-4-pyrimidinyl][3-(trifluoromethyl)phenyl]methanone] | 82 to 91
Cc1cnc(-c2ccc(C(F)(F)F)cc2)nc1C(=O)c1cccc(C(F)(F)F)c1 [Example 5, [5-methyl-2-[4-(trifluoromethyl)phenyl]-4-pyrimidinyl][3-(trifluoromethyl)phenyl]methanone] | 98 to 100
